From paper PMC2001825, “Pharmacokinetics of ethylenediaminemalonatoplatinum(II) (JM-40) during phase I trial” (British Journal of Cancer, 1987)
Values joined by “and” are separate entries in the source; they are usually repeats but may differ in a detail not shown here. Equal values may be shown once.

Tests used:
[1] = cited from earlier work
[2] = after cis-platin, ref Vermorken et al., cited from earlier work
[3] = human, in vivo
Excerpt: Br. J. Cancer (1987), 56, 479-483 ? The Macmillan Press Ltd., 1987 Pharmacokinetics of ethylenediaminemalonatoplatinum(II) (JM-40) during phase I trial F. Elferink1, W.J.F. van der Vijgh1, W.W. ten Bokkel Huinink2, J.B. Vermorken', I. Klein1, B. Winograd', M.K.T. Knobf', G. Simonetti2, H.E. Gall', J.G. McVie2 & H.M. Pinedo' 1Department of Oncology, Free University Hospital, De Boelelaan 1117, 1081 HV Amsterdam; and 2Netherlands Cancer Institute, Antoni van Leeuwenhoek Hospital, Plesmanlaan 121, 1066 CX Amsterdam, The Netherlands. […] The drug was administered intravenously by short-term (10-60min) infusion. Doses ranged from 20 to 1,200 mgm-2. JM-40 was determined in plasma ultrafiltrate and urine by HPLC. Platinum (Pt) concentrations were determined in plasma, plasma ultrafiltrate, urine and red blood cells by atomic absorption spectrometry up to 5 days after administration of the drug. Ultrafilterable Pt could be determined up to 45 days after the infusion in one patient sampled over such a long period. […] During the first 6h 27+9% of the administered dose was excreted as JM-40. Cumulative platinum excretion in the urine amounted to 29+ 13%, 42+ 14% and 60+13% over the first 6h, 24h and 5 days, respectively. The uptake of platinum in red blood cells was limited, comprising only 0.24+0.12% of the administered dose. […] In particular the low emetogenic potential as determined in the ferret (Schurig et al., 1984) and the limited nephrotoxicity observed in dogs (Lelieveld et al., 1984) were reasons to conduct a phase I trial. […] Investigation of the pharmacokinetics during phase I clinical trials is important because it may help to design an optimal therapeutic regimen in phase II trials (Kovach, 1983). In the case of an analogue, pharmacokinetics can be compared with that of the parent compound. Furthermore, when preclinical information on animal pharmacokinetics is available human pharmacokinetics at low doses of the phase I trial may aid in escalating the dose as quickly and safely as possible (Collins et al., 1986, Van Hennik et al. 1987). Thus, clinical pharmacokinetics of JM-40 and platinum were investigated in plasma, plasma ultrafiltrate, urine and red blood cells. Figure 1 Structural platinum(II) (JM-40). formula of ethylenediaminemalonato- Patients and methods Patients and materials Pharmacokinetic studies were performed in 19 patients who received 28 cycles of JM-40 within a dose range of 20- 1,200mgm-2. The median age of the patients (6 females, 13 males) was 57 yrs (range 37-74 yrs). […] Renal function was decreased (creatinine clearance <60mlmin-1) at the start of only 3 treatment cycles. […] JM-40 was supplied by Johnson Matthey, Reading, Berkshire, UK. […]

[4] = system: plasma proteins; set-up: method as in Van der Vijgh et al., 1986; details: ref Van der Vijgh et al., 1986; cited from earlier work
[5] = set-up: method as in Schurig et al., 1984; details: ferret, preclinical; ref Schurig et al., 1984; cited from earlier work
[6] = set-up: method as in Lelieveld et al., 1984; details: dogs, preclinical; ref Lelieveld et al., 1984; cited from earlier work

N.N.O=C([O-])C1(C(=O)[O-])CCC1.[Pt+2] [carboplatin, diammine( 1, l-cyclobutanedicarboxylato)platinum(II), reference compound]
dose limiting toxicity ([1]; ref Joss et al., 1984): myelotoxicity

N.N.[Cl][Pt][Cl] [cis-platin, cis-diammine-dichloroplatinum(II)]
CUE 0-6h of free Pt ([2]; 1984b): 24+5 %D
CUE 0-24h of free Pt [2]; 1986: 28+4 %D

ethylenediaminemalonatoplatinum(II) [JM-40]
cumulative urinary excretion after 24 h, as Pt [3]: 42+14%
dose m-2 vs AUC relation [3]: linear pharmacokinetics
half-life of Pt in RBCs over day 1-5 [3]: 14 + 3 days
time of maximum Pt levels in RBCs after start of infusion [3]: 2 to 8 h
in vitro rate constant of plasma protein binding (k in vitro of free Pt) [4]: 0.002 min⁻¹ and 0.0020 min⁻¹
emetogenic potential [5]: low
nephrotoxicity [6]: limited
maximum tolerable dose ([1]; in vivo): 1,200 mg m-2
